Values joined by “and” are separate entries in the source; they are usually repeats but may differ in a detail not shown here. Identical values can stand only once. Inconclusive results and toxic doses are left out. Rule as the data show it: active = T/C of 150% or more; inactive = T/C below 125%. Peptide text beside a SMILES is read from it. * marks the point of attachment. Boc = CC(C)(C)OC(=O)*; Bn = c1ccc(C*)cc1
System: L1210 leukemia ip in BDF1 mice, survival T/C
Assay: NCI In Vivo Anticancer Drug Screen. Data for tumor model L1210 Leukemia (intraperitoneal) in B6D2F1 (BDF1) mice
Conditions: endpoint: mean survival time, higher = longer survival
Summary of the method: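 Mice bearing the transplanted tumor received compound or vehicle. Survival of the treated group was divided by that of the vehicle-treated control group to give the ratio.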

[1] = dose: 100.0 mg/kg/injection, schedule: Q01DX001 (ip), vehicle: saline with Tween-80
[2] = dose: 200.0 mg/kg/injection, schedule: Q01DX001 (ip), vehicle: saline with Tween-80
[3] = dose: 400.0 mg/kg/injection, schedule: Q01DX001 (ip), vehicle: saline with Tween-80
[4] = dose: 100.0 mg/kg/injection, schedule: Q01DX001 (ip), vehicle: carboxymethylcellulose (CMC)
[5] = dose: 200.0 mg/kg/injection, schedule: Q01DX001 (ip), vehicle: carboxymethylcellulose (CMC)
[6] = dose: 400.0 mg/kg/injection, schedule: Q01DX001 (ip), vehicle: carboxymethylcellulose (CMC)
[7] = dose: 100.0 mg/kg/injection, schedule: Q04DX003 (ip), vehicle: Klucel (hydroxypropylcellulose) (HPC)
[8] = dose: 6.25 mg/kg/injection, schedule: Q01DX009 (ip), vehicle: Klucel (hydroxypropylcellulose) (HPC)
[9] = dose: 12.5 mg/kg/injection, schedule: Q01DX009 (ip), vehicle: Klucel (hydroxypropylcellulose) (HPC)
[10] = dose: 25.0 mg/kg/injection, schedule: Q01DX009 (ip), vehicle: Klucel (hydroxypropylcellulose) (HPC)
[11] = dose: 25.0 mg/kg/injection, schedule: Q04DX003 (ip), vehicle: Klucel (hydroxypropylcellulose) (HPC)
[12] = dose: 100.0 mg/kg/injection, schedule: Q01DX009 (ip), vehicle: Klucel (hydroxypropylcellulose) (HPC)
[13] = dose: 200.0 mg/kg/injection, schedule: Q01DX009 (ip), vehicle: Klucel (hydroxypropylcellulose) (HPC)
[14] = dose: 200.0 mg/kg/injection, schedule: Q04DX003 (ip), vehicle: Klucel (hydroxypropylcellulose) (HPC)
[15] = dose: 400.0 mg/kg/injection, schedule: Q04DX003 (ip), vehicle: Klucel (hydroxypropylcellulose) (HPC)
[16] = dose: 50.0 mg/kg/injection, schedule: Q01DX001 (ip), vehicle: saline
[17] = dose: 100.0 mg/kg/injection, schedule: Q01DX001 (ip), vehicle: saline
[18] = dose: 200.0 mg/kg/injection, schedule: Q01DX001 (ip), vehicle: saline
[19] = dose: 400.0 mg/kg/injection, schedule: Q01DX001 (ip), vehicle: saline
[20] = dose: 400.0 mg/kg/injection, schedule: Q01DX009 (ip), vehicle: Klucel (hydroxypropylcellulose) (HPC)

Measured: T/C

NC(=O)c1cc(Cl)cc(N)c1Cl
inactive: [1] 107 % of control | [2] 104 % of control | [3] 117 % of control

O=C(Nc1ccc(S(=O)(=O)c2ccc(NC(=O)C(F)(F)Cl)cc2)cc1)C(F)(F)Cl
inactive: [4] 104 % of control | [5] 101 % of control | [6] 103 % of control

N#C/C(=C\c1ccc(Cl)cc1)c1ccccc1
inactive: dose: 100.0 mg/kg/injection, schedule: Q04DX003 (ip), vehicle: gum acacia 100 % of control | dose: 200.0 mg/kg/injection, schedule: Q04DX003 (ip), vehicle: gum acacia 102 % of control | dose: 400.0 mg/kg/injection, schedule: Q04DX003 (ip), vehicle: gum acacia 109 % of control

CC(OC(=O)CCN1CC1)C1CC1 (stereo not given)
inactive: dose: 2.5 mg/kg/injection, schedule: Q01DX009 (ip), vehicle: Klucel (hydroxypropylcellulose) (HPC) 103 % of control | dose: 5.0 mg/kg/injection, schedule: Q01DX009 (ip), vehicle: Klucel (hydroxypropylcellulose) (HPC) 102 % of control | dose: 10.0 mg/kg/injection, schedule: Q01DX009 (ip), vehicle: Klucel (hydroxypropylcellulose) (HPC) 100 % of control | dose: 20.0 mg/kg/injection, schedule: Q01DX009 (ip), vehicle: Klucel (hydroxypropylcellulose) (HPC) 101 % of control | dose: 20.0 mg/kg/injection, schedule: Q04DX003 (ip), vehicle: Klucel (hydroxypropylcellulose) (HPC) 103 % of control | dose: 40.0 mg/kg/injection, schedule: Q04DX003 (ip), vehicle: Klucel (hydroxypropylcellulose) (HPC) 93 % of control | dose: 80.0 mg/kg/injection, schedule: Q04DX003 (ip), vehicle: Klucel (hydroxypropylcellulose) (HPC) 101 % of control | [7] 87 % of control

CC(=O)c1sccc1C
inactive: [8] 93 % of control | [9] 92 % of control | dose: 12.5 mg/kg/injection, schedule: Q04DX003 (ip), vehicle: Klucel (hydroxypropylcellulose) (HPC) 101 % of control | [10] 90 % of control | [11] 92 % of control

c1c(NC2=NCCO2)cc2c3c1CCCN3CCC2
inactive: dose: 50.0 mg/kg/injection, schedule: Q01DX009 (ip), vehicle: saline 95 % of control

CNC(c1ccccc1)C(O)c1ccccc1 (stereo not given)
inactive: [10] 106 % of control | dose: 50.0 mg/kg/injection, schedule: Q01DX009 (ip), vehicle: Klucel (hydroxypropylcellulose) (HPC) 95 % of control | [12] 106 % of control | [7] 97 % of control

CCOC(=O)NC1C2CC3C(C2)C31 (stereo not given)
inactive: dose: 50.0 mg/kg/injection, schedule: Q01DX001 (ip), vehicle: carboxymethylcellulose (CMC) 107 % of control | [4] 103 % of control | [5] 101 % of control | [6] 109 % of control

CC(C)(C)OC(=O)NC(CO)C(=O)NC(Cc1ccc(OCc2ccccc2)cc1)C(=O)NCC(=O)O (stereo not drawn) (Boc-Ser-Tyr(Bn)-Gly-OH; configuration not given here)
inactive: dose: 50.0 mg/kg/injection, schedule: Q01DX005 (ip), vehicle: saline 100 % of control | dose: 200.0 mg/kg/injection, schedule: Q01DX005 (ip), vehicle: saline 105 % of control | dose: 400.0 mg/kg/injection, schedule: Q01DX005 (ip), vehicle: saline 91 % of control

CC(=O)Oc1c2sccc2cc2ccsc12
inactive: [1] 97 % of control | [2] 92 % of control | [3] 92 % of control

CCC(COS(=O)(=O)c1ccc(C)cc1)[N+](=O)[O-] (stereo not given)
inactive: [11] 112 % of control | dose: 50.0 mg/kg/injection, schedule: Q04DX003 (ip), vehicle: Klucel (hydroxypropylcellulose) (HPC) 96 % of control | [7] 86 % of control

C=C1CC(c2ccc(S(=O)(=O)N3CCOCC3)cc2)OC1=O (stereo not given)
inactive: dose: 1.56 mg/kg/injection, schedule: Q01DX009 (ip), vehicle: Klucel (hydroxypropylcellulose) (HPC) 94 % of control | dose: 3.12 mg/kg/injection, schedule: Q01DX009 (ip), vehicle: Klucel (hydroxypropylcellulose) (HPC) 106 % of control | [8] 106 % of control | [9] 105 % of control | [10] 93 % of control | dose: 100.0 mg/kg/injection, schedule: Q04DX002 (ip), vehicle: Klucel (hydroxypropylcellulose) (HPC) 95 % of control | dose: 200.0 mg/kg/injection, schedule: Q04DX002 (ip), vehicle: Klucel (hydroxypropylcellulose) (HPC) 113 % of control

O=C(Nc1cccc(C(=O)O)c1)Nc1cccc(C(F)(F)F)c1
inactive: [12] 86 % of control | [13] 86 % of control

CS(=O)(=O)N(CC(=O)O)Cc1cccc(Br)c1
inactive: dose: 50.0 mg/kg/injection, schedule: Q01DX005 (ip), vehicle: other 107 % of control | dose: 100.0 mg/kg/injection, schedule: Q01DX005 (ip), vehicle: other 120 % of control | dose: 200.0 mg/kg/injection, schedule: Q01DX005 (ip), vehicle: other 100 % of control

CCCCOC1CC2c3ccccc3C1c1cccc[n+]12 (stereo not given)
inactive: dose: 12.5 mg/kg/injection, schedule: Q01DX009 (ip), vehicle: saline 111 % of control and 102 % of control | dose: 12.5 mg/kg/injection, schedule: Q04DX003 (ip), vehicle: saline 94 % of control and 101 % of control and 100 % of control | dose: 25.0 mg/kg/injection, schedule: Q01DX009 (ip), vehicle: saline 104 % of control and 98 % of control | dose: 25.0 mg/kg/injection, schedule: Q04DX003 (ip), vehicle: saline 100 % of control and 101 % of control | dose: 50.0 mg/kg/injection, schedule: Q04DX003 (ip), vehicle: saline 94 % of control and 88 % of control and 103 % of control

CCCCCCCCCCCCCCCCCSc1cccc(C)c1
inactive: [7] 93 % of control | [14] 88 % of control

CC(C)CCC(C)(C)C1=CC(=O)C=CC1=O
inactive: dose: 100.0 mg/kg/injection, schedule: Q04DX002 (ip), vehicle: saline with Tween-80 93 % of control | dose: 200.0 mg/kg/injection, schedule: Q04DX002 (ip), vehicle: saline with Tween-80 90 % of control | dose: 400.0 mg/kg/injection, schedule: Q04DX002 (ip), vehicle: saline with Tween-80 93 % of control

O=C(N/N=C/C=C\c1ccccc1)C(=O)N/N=C/C=C/c1ccccc1
inactive: [7] 94 % of control | [14] 89 % of control | [15] 94 % of control

Brc1ccc(/C=C2\C=Cc3ccccc32)cc1
inactive: [4] 98 % of control | [5] 93 % of control | [6] 93 % of control

O=[N+]([O-])c1ccc(NN(c2ccccc2)c2ccccc2)c([N+](=O)[O-])c1
inactive: [7] 98 % of control | [14] 97 % of control | [15] 90 % of control

CN(C)[Se](=O)Cl (stereo not given)
inactive: dose: 12.5 mg/kg/injection, schedule: Q04DX002 (ip), vehicle: saline with Tween-80 100 % of control | dose: 25.0 mg/kg/injection, schedule: Q04DX002 (ip), vehicle: saline with Tween-80 110 % of control

O=C1COc2ccccc21
inactive: [16] 97 % of control | [17] 100 % of control | [18] 100 % of control | [19] 100 % of control

C=C(C)C1CCC2=CCCC(C)C2(C)C1 (stereo not given)
inactive: dose: 100.0 mg/kg/injection, schedule: Q04DX003 (ip), vehicle: acetone 98 % of control | dose: 200.0 mg/kg/injection, schedule: Q04DX003 (ip), vehicle: acetone 96 % of control

C(=Nc1cccnc1)c1c[nH]c2ccccc12
inactive: [12] 95 % of control | [13] 86 % of control | [20] 89 % of control

Cn1c(C2=CC(=O)c3ccccc3C2=O)c(C2=CC(=O)c3ccccc3C2=O)c2ccccc21
inactive: [16] 102 % of control | [17] 98 % of control | [18] 104 % of control | [19] 102 % of control

NNc1cc(S(=O)(=O)O)cc2cc(S(=O)(=O)O)cc(O)c12
inactive: dose: 75.0 mg/kg/injection, schedule: Q01DX009 (ip), vehicle: Klucel (hydroxypropylcellulose) (HPC) 107 % of control | dose: 150.0 mg/kg/injection, schedule: Q01DX009 (ip), vehicle: Klucel (hydroxypropylcellulose) (HPC) 107 % of control | dose: 300.0 mg/kg/injection, schedule: Q01DX009 (ip), vehicle: Klucel (hydroxypropylcellulose) (HPC) 104 % of control

CC(=O)OCC1OC(Sc2cccc3ccccc23)C(OC(C)=O)C(OC(C)=O)C1OC(C)=O (stereo not given)
inactive: [17] 104 % of control | [18] 93 % of control | [19] 98 % of control

O=Cc1ccc(OS(=O)(=O)c2ccc([N+](=O)[O-])cc2)cc1
inactive: [12] 97 % of control | [13] 98 % of control | [20] 90 % of control

Source: PubChem BioAssay AID248 (DTP/NCI, 2004)
